Assay results as given in patent US6602852B1, “Basic peptides and pharmaceutical compositions containing same” (NST NeuroSurvival Technologies, Ltd., priority 1998, dated 2003).

Tests used:
[1] = test system: Cardiolipin (CL) / anti β2GPI
Method: Antiphospholipid antibodies (APLA) comprise a family of antibodies characterized by their reactivity with negatively charged phospholipids in vitro. The target or many anti-phospholipid antibodies is either a complex between anionic phospholipid and the plasma protein Apolipoprotein-H (β2GPI) or the protein β2GPI alone bound to PS (McNeil et al., 1990, Matsurra et al., 1994). […] The assay was performed as essentially described above for anti CL ELISA with several modifications. […] Following washes, the wells were incubated for 1 hour with 1/10000 of Peroxidase-conjugated affinity purified rabbit anti goat IgG (Jackson Immunoresearch lab. PA) in PBS/BSA buffer. Washes and development were as described for anti CL ELISA. In the following experiments, CL coated wells were incubated with 1/500 dilution or affinity purified goat anti-human β2GPI in 10% normal plasma (as a source for β2GPI protein and buffering condition).

apoptotic hepatocytes = type: in vivo
Method: All animals were killed 2 hr after administration of antibody followed by organ removal. Heart, lung and liver were collected.
Formalin fixed paraffin-embedded tissues were sectioned (5 μm) for staining with Hematoxylin/Eosin or other techniques.
Endogenous peroxidase activity was blocked by incubation with 3% H2O2.
After washing with PBS, staining was developed with 3,3-diaminobenzidine tetrahydrochloride (DAB), and counterstained with Hematoxylin.
Liver sections from different lobes were used for detection of stained apoptotic cells compared to normal cells.
The percentage of apoptotic cells in the fields was estimated by evaluating parallel sections stained with Hematoxylin/Eosin. Analysis was performed blindly, since the pathologist performing the histological evaluation was unaware of the assignment of mice to the treatment or control group.

[2] = test system: thrombin generation on apoptotic HeLa cells
Method: One of the final steps of both intrinsic and extrinsic pathways of coagulation, is the generation of thrombin from prothrombin. Thrombin is the final protease generated in the sequence of coagulation reaction, and its activity entails conversion of fibrinogen to fibrin, that forms the clot. Generation of thrombin on the pro-coagulant surface of apoptotic cells was assayed (according to Bombeli T. et al., 1997, Blood 89(7), 2429-2442), by determining its activity, using the chromogenic substrate S-2366 (from Chromogenix, Sweden). Samples of pro-coagulant cells (HeLa cells treated with 500 μM of DA for 18 hours) were used for the assay.

Cardiolipin (CL) = test system: Cardiolipin (CL)
Method: As control, wells were coated with ethanol only. The coated plates were washed 3 times with 100 ul of blocking buffer (PBS containing 0.3% gelatin (Sigma) and 1 mM EDTA) to block non specific binding. A 5 min incubation time was used between each wash. Normal plasma (Ilex, Italy, 84670-11) and Lupus plasma (either from Gradipore, Australia, LAHP-1, or from Biopool, Ventura, Calif.) were prepared according to the producer instruction. The plasma was diluted 1/10 in the blocking buffer and was added to the CL and ethanol coated wells. Binding of different NST 300 compounds to CL was performed by addition of serial dilutions of NST compounds (prepared in the plasma/blocking buffer solution) to the CL or ethanol coated wells. Following 3 hr incubation, the plates were washed twice with PBS/BSA buffer (0.4% bovine serum albumin (BSA) in PBS). For detection of anticardiolipin binding property of the tested plasma, the plates were incubated with a 1/10000 dilution of Peroxidase-conjugated affinity purified Goat anti-human IgG (Jackson Immunoresearch lab.) in PBS/BSA buffer for 1 hour. The plates were then washed 3 times with PBS/BSA buffer, and color reaction was developed by incubation with 100 ul of 0-phenylenediamine (OPD) dihydrochloride (Sigma p-7288) at a concentration of 0.4 mg/ml in 0.05 M phosphate citrate buffer, pH 5.0 supplemented, with 4 ul of 30% hydrogen peroxide (Aldrich) for 10 ml mixture. To detect the level of NST 300 compound that was bound to CL, parallel wells were incubated with streptavidin conugated to OPD (SA-OPD, Jackson Immunoresearch lab.), that specifically recognize the biotinylated NST 300 compound. The resulting colour changes were recorded at […] using a Bio Tek Elx800 Eliza reader.

HUVEC cells = test system: HUVEC cells
Method: (§1) Anti β2GPI antibodies are present in sera of APS patients. […] For cell-ELISA tests, HUVEC cells or BeWo cells (both at 40,000/well), were plated on 96 well tissue culture plates (Nunc) in 200 ul of the culture medium, and allowed to grow for 18-22 hours. Following 2 washes with Hepes buffer (10 mM Hepes pH, 8, 140 mM NaCl) and 5 min incubation with the culture medium, the wells were incubated for 3 hr with 10% of normal plasma in PBS (as a source of β2GPI protein), supplemented with 1/500 of goat anti-human Apolipoprotein-H (β2GPI) (Affinity Biologicals, Pa.) Parallel control wells were incubated with 10% of normal plasma from Ilex. Serial dilutions of NST compounds were prepared in plasma/PBS. Washes and development were as described for anti CL ELISA.

BeWo cells = test system: BeWo cells
Method: as §1

Myristate-KKKKKRFSFKKSFKLSGFSFKKNKKK (SEQUENCE ID NO. 2)-(biotin) [NST302]
concentration of complete inhibition of anti β2GPI binding to CL ([1]; 10% normal plasma): 50 µM
concentrations giving significant displacement of anti β2GPI from CL ([1]; 10% normal plasma): 0.1 to 50 µM
inhibition of anti β2GPI binding to CL ([1]; FIG. 6c): Complete inhibition
staining in normal hepatocytes (apoptotic hepatocytes; animals injected with NST302 only): never observed
staining of liver in anti-Fas treated mice (apoptotic hepatocytes; intravenous, 5 μM, avidin biotin peroxidase detection): observed at cytoplasma and cytoplasmatic border of apoptotic hepatocytes
delay factor of time needed to achieve 50% of thrombin activity ([2]; 25 μM): 2.25
time needed to achieve 50% of thrombin activity ([2]; 25 μM): 4.5 min
rate of thrombin activity and lag time for activating the reaction ([2]; 5-25 μM): delayed
concentration at which inhibition of thrombin generation is observed already ([2]; 5-25 μM tested): 5 µM
concentration at which binding to CL reached saturation (Cardiolipin (CL); CL coated ELISA wells): about 0.3 μM
concentration from which displacement of Lupus plasma binding to CL starts (Cardiolipin (CL); Lupus plasma from Gradipore): 0.1 µM
concentration of maximum effect of displacement of Lupus plasma from CL (Cardiolipin (CL); Lupus plasma from Gradipore): 2.5 µM
concentration of maximum effect of displacement of anti β2GPI (HUVEC cells): 50 µM
blocking of binding to pro-coagulant surface of cells (HUVEC cells; FIG. 6d): dramatic and significant ability to block binding
concentration of maximum effect of displacement of anti β2GPI (BeWo cells): 50 µM
blocking of binding to pro-coagulant surface of cells (BeWo cells; FIG. 6e): dramatic and significant ability to block binding
